In article PMC6060094, “Structural determinants of the catalytic mechanism of Plasmodium CCT, a key enzyme of malaria lipid biosynthesis” (Scientific Reports, 2018):

How the values were obtained:
PfCCT(528–795) = biological target: T1, PfCCT(528–795) (Plasmodium falciparum, UniProt P49587, DEL194-211); experiment: Equilibrium ligand binding by isothermal titration calorimetry (ITC); conditions: 20 °C
T1 construct: previously described PfCCT(528–795) lacking the lysine-rich Plasmodium specific loop (720–737); His-tag; made in house
Procedure: (§1) Calorimetric measurements were performed on an ITC 200 titration calorimeter (Malvern) at 20 °C. The protein samples were dialyzed against 20 mM HEPES/NaOH pH 7.5, 100 mM NaCl, including 0.5 mM Tris(2-carboxyethyl)phosphine (TCEP) as reducing agent. CTP and CDPCho were diluted from a concentrated stock into the dialysis buffer with subsequent pH adjustment. Concentration of the titrating nucleotide ligands were determined using molar extinction coefficients 9000 M^−1 cm^−1 at 271 nm for CTP and 5000 M^−1 cm^−1 at 260 nm for CDPCho[16]. In the experimental setup, the cell of the instrument was filled with protein and the syringe with the ligand. The titrations typically included 19 steps of injection with 2 μl of ligand per injection spaced 180 s apart from each other, with the injection syringe rotating at 750 r.p.m. The data were analyzed using MICROCAL ORIGIN software following the directions of the manufacturer. To account for dilution, the invariant integrated heat value of the last 3–5 data points was subtracted from all data points. The one set of independent sites binding model was applied to data for determination of thermodynamic parameters: dissociation constant (Kd), stoichiometry (N), enthalpy (ΔH) and entropy (ΔS). Due to the low apparent affinity, the N value was fixed to a constant value of 1 in CTP titrations to PfCCT(528–795) K663A according to the low c value ITC data analysis protocol[40],[41]. For CTP and CDPCho titrations of PfCCT(528–795) K663A, and CTP titrations of T761A and T762A variants of PfCCT(528-795), mean and SD from two independent experiments are provided, whereas for CDPCho titrations of PfCCT(581–775) and PfCCT(528-795) mean and SD from three independent experiments are provided. For PfCCT(528-795) (Y626F/Q636A), errors of model fit to data of a single ligand binding experiment are given.

PfCCT(581–775) [1] = biological target: T2, PfCCT(581–775) (Plasmodium falciparum, UniProt P49587, DEL194-211); experiment: as above; conditions: 20 °C
T2 construct: The PfCCT(581–775) construct was obtained using previously described PfCCT(528–795); 6xHis (TEV-cleavable) (N, cleaved yes); made in house; host or cells: E. coli BL21 (DE3)
Procedure: as §1

[2] = biological target: PfCCT(528–795) Y626F/Q636A (Plasmodium falciparum, UniProt Q8IEE9, DEL720-737/Q636A/Y626F); experiment: as above; conditions: 20 °C, pH 7.5, single experiment, errors of model fit
Chain of PfCCT(528–795) Y626F/Q636A (Q8IEE9 528-795, stated change not applied): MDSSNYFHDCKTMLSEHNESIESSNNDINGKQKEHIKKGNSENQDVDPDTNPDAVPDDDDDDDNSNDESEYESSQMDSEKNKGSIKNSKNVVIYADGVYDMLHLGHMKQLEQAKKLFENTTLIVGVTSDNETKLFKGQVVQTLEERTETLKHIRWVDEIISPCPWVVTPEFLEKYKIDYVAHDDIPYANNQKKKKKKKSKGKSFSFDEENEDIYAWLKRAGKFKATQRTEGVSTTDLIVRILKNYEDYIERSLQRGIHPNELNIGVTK
Procedure: as §1

PfCCT(528–795) K663A = PfCCT(528–795) K663A (Plasmodium falciparum, UniProt Q8IEE9, DEL720-737/K663A); experiment: as above; conditions: 20 °C
Chain of PfCCT(528–795) K663A (Q8IEE9 528-795, stated change not applied): as above
Procedure: as §1

PfCCT(581–775) [3] = biological target: T2, PfCCT(581–775); experiment: Saturation Transfer Difference NMR (STD-NMR) ligand binding; conditions: ligand 1 mM; 50 µM PfCCT(581-775), 283 K
Procedure: In order to provide structural insights into the mechanism of action of PfCCT, we set out to crystallize the constitutively active C-terminal catalytic domain of PfCCT. Several constructs were tested and our attempts were successful only in case of PfCCT(581–775) that corresponds to the exact region visible in the crystal structure of RnCCT (PDB: 3HL4)[20] (Fig. 1a). […] (Table 1 and Supplementary Fig. S1). We further assessed the functionality of PfCCT(581–775) by characterizing its substrate and product binding ability. […] Saturation Transfer Difference Nuclear Magnetic Resonance (STD-NMR) experiments indicated STD signal of CTP, ChoP and CDPCho bound to PfCCT(581–775) at 1 mM, 4 mM and 1 mM concentrations, respectively (Supplementary Fig. S1). This latter result is consistent with previously observed unusually low ChoP affinity of PfCCT[16]. We concluded that PfCCT(581–775) is compatible with substrate and product recognition and may be amenable to structural studies provided that its compromised enzymatic function is taken into account in structure-based interpretations. It is likely that the drop of PfCCT(581–775) enzyme activity is due to the elimination of the C-terminal flanking part as similarly located truncations in the RnCCT catalytic domain also led to severe loss of activity[28],[29]. […]
Kinetic data are fitted with the Michaelis–Menten equation. […] Values of the measured kinetic and thermodynamic parameters and their errors […]
(black) of 50 µM PfCCT(581-775) in 20 mM Tris/HCl pH 7.5, 150 mM NaCl and 2 mM EtSH are shown in presence of c) 1 mM CTP, d) 4 mM ChoP and e) 1 mM CDPCho. […] The 1D 1H STD-NMR spectra were recorded on a Bruker 500 MHz instrument at 283 K with 256 scans and selective saturation of protein resonances at 0.922 ppm using a series of Gaussian shaped pulses (20 ms, 1 ms delay between the pulses). […] All 1D 1H NMR spectra were recorded […]

Q: What does the source list for `C[N+](C)(C)CCOP(=O)(O)OP(=O)([O-])OC[C@H]1O[C@@H](n2ccc(N)nc2=O)[C@H](O)[C@@H]1O` [CDPCho, CDP-choline]?
A: ΔGCDP-Cho (PfCCT(528–795); pH 7.5): -6.0 ± 0.2 kcal/mol; ΔHCDP-Cho (PfCCT(528–795); pH 7.5): -16.1 ± 0.1 kcal/mol; −TΔSCDP-Cho (PfCCT(528–795); pH 7.5): 10.1 ± 0.1 kcal/mol; Kd (PfCCT(528–795); pH 7.5, read-out: Kd,CDP-Cho): 34 ± 1 µM; ΔGCDP-Cho (PfCCT(581–775) [1]; pH 7.5): -5.8 ± 0.1 kcal/mol; ΔHCDP-Cho (PfCCT(581–775) [1]; pH 7.5): -10.5 ± 0.3 kcal/mol; −TΔSCDP-Cho (PfCCT(581–775) [1]; pH 7.5): 4.7 ± 0.4 kcal/mol; Kd (PfCCT(581–775) [1]; pH 7.5, read-out: Kd,CDP-Cho): 47 ± 5 µM; ΔGCDP-Cho [2]: -6.2 ± 0.1 kcal/mol; ΔHCDP-Cho [2]: -12.0 ± 0.2 kcal/mol; −TΔSCDP-Cho [2]: 5.8 ± 0.1 kcal/mol; Kd ([2]; read-out: Kd,CDP-Cho): 22.2 ± 0.2 µM; ΔGCDP-Cho (PfCCT(528–795) K663A; pH 7.5): -5.0 ± 1.4 kcal/mol; ΔHCDP-Cho (PfCCT(528–795) K663A; pH 7.5): -11.4 ± 1.5 kcal/mol; −TΔSCDP-Cho (PfCCT(528–795) K663A; pH 7.5): 6.5 ± 1.6 kcal/mol; Kd (PfCCT(528–795) K663A; pH 7.5, read-out: Kd,CDP-Cho): 210 ± 60 µM; STD-NMR signal of ligand bound to enzyme (PfCCT(581–775) [3]): STD signal
